What all share (type): cell-based
In assay [1] the test system is Rhizomucor pusillus 46342. Nature of the assay: In vitro antifungal assay (Example IX), microdilution broth, MEC. The following applies: minimum effective concentration (shortening of hyphae), 35° C., 40-48 h, RPMI1640. As to the method:
(§1) Measurement of antifungal activity: […] Candida albicans 90028, Aspergillus fumigatus MYA3626, Rhizomucor pusillus 46342 and Cryptococcus neoformans […] strains were obtained from American Type Culture Collection (ATCC). […] (A. fumigatus) and 35° C. (R. pusillus). Water containing 1% Tween was directly added to the agar plate and gently agitated to wet and remove the Aspergillus conidia. For R. pusillus, water was added to the surface and gently massaged to wet and remove the spores. For both species, the conidia or spores and mycelial fragments were collected, followed by removal of mycelium, conidiophores and large clumps of conidia/spores. The resulting spore suspension was counted and diluted into RPMI1640 medium to adjust to a final suspension of 1-2×10^4 spores/mL. The suspension was used in the MEC measurement as described below. […] The compounds were weighed and DMSO was added to prepare a 10 mg/mL stock. The solutions were mixed by vortexing and sonication at 37° C. for 5-10 mins. The resulting solutions were sterile filtered using a PTFE filter, and aliquoted (12 μL or as needed) and stored at -20° C. Intermediate compound dilutions were prepared in sterile polypropylene tubes in 100% DMSO. […] This was validated by thorough mixing and reading at 600 nm on a microplate reader. The minimum concentration that led to shortening of hyphae as compared to hyphal growth in DMSO control wells was determined as the minimum effective concentration (MEC) for A. fumigatus and R. pusillus (as read for echinocandins). The use of the MIC and MEC endpoints against yeasts and molds, respectively has been described by Pfaller M A, Duncanson F, Messer S A, Moet G J, Jones […]. Antimicrob Agents Chemother. 2011. 55(11):5155-8. In vitro activity of a novel broad-spectrum antifungal, […], tested against Aspergillus spp. determined by CLSI and EUCAST broth microdilution methods. Results are shown in Table 2, and the letters indicate the following ranges in μg/mL: […]

In assay [2] the test system is Aspergillus fumigatus MYA3626. Described as above. Particulars: minimum effective concentration (shortening of hyphae), 35° C., 40-48 h, RPMI1640. As to the method:
as §1

For the next assay, the system named is Candida albicans 90028. Briefly: In vitro antifungal assay (Example IX), microdilution broth, MIC. The following applies: minimum inhibitory concentration (≥50% inhibition), 35° C., 40-48 h, RPMI1640. As to the method:
Measurement of antifungal activity: Antifungal activity of the compounds was evaluated in a microdilution broth assay as per Clinical and Laboratory Standard Institute methodology for yeast (for Candida and Cryptococcus) (1) and molds (for Aspergillus and Rhizomucor) (2). Candida albicans 90028, Aspergillus fumigatus MYA3626, Rhizomucor pusillus 46342 and Cryptococcus neoformans H99 strains were obtained from American Type Culture Collection (ATCC).
Preparation of Fungal Suspension. C. albicans 90028 and C. neoformans H99 strains were streaked from frozen stocks at −80° C. onto Sabouraud Dextrose Agar (SDA) plates. These were allowed to grow for 24 h (C. albicans) and 48 h (C. neoformans) at 35° C. before using them in the assay. 5-6 individual colonies were picked and diluted into sterile water to obtain a fungal suspension. The cell density of the suspension was determined and the culture diluted with RPMI1640 medium to obtain a fungal suspension of 2.5×10^3 cells/mL. The suspension was used in the MIC measurement as described below.
Preparation of Compound Stocks and Intermediate Dilutions: The compounds were weighed and DMSO was added to prepare a 10 mg/mL stock. The solutions were mixed by vortexing and sonication at 37° C. for 5-10 mins. The resulting solutions were sterile filtered using a PTFE filter, and aliquoted (12 μL or as needed) and stored at −20° C. Intermediate compound dilutions were prepared in sterile polypropylene tubes in 100% DMSO. The compound stock solution was first diluted in DMSO to obtain a concentration of […] to 0.19 μg/mL.
MIC/MEC Measurement: 99 μL 1 of the fungal suspension in RPMI1640 prepared as above was added to each well of a 96-well round bottom assay plate. 1 μL of the intermediate compound dilutions (200-0.19 μg/mL) were added to wells of the plate. This led to a 100-fold dilution of the intermediate dilutions resulting in a final compound concentration of 2-0.0019 μg/mL in the plate. 1 μL of DMSO was added to “No drug” control wells. The solutions were mixed by shaking on a plate shaker for 10 mins and plates incubated at 35° C. for 40-48 h (C. albicans, A. fumigatus, R. pusillus) and 72 h (Cryptococcus). […] This was validated by thorough mixing and reading at 600 nm on a microplate reader. The minimum concentration that led to shortening of hyphae as compared to hyphal growth in DMSO control wells was determined as the minimum effective concentration (MEC) for A. fumigatus and R. pusillus (as read for echinocandins). The use of the MIC and MEC endpoints against yeasts and molds, respectively has been described by Pfaller M A, Duncanson F, Messer S A, Moet G J, Jones R N, Castanheira M. Antimicrob Agents Chemother. 2011. 55(11):5155-8. In vitro activity of a novel broad-spectrum antifungal, E1210, tested against Aspergillus spp. determined by CLSI and EUCAST broth microdilution methods. Results are shown in Table 2, and the letters indicate the following ranges in μg/mL: […]

In brackets after ≈: the same amount, converted by molar mass.

What is called minimal effective concentration is the lowest level tested that produced the effect sought. Low readings indicate greater potency, high ones weaker potency. The MIC is the smallest concentration in the dilution series that meets the test's criterion for growth inhibition. A higher MIC goes with a less susceptible organism. For the compound `Nc1ncccc1-c1cc(Cc2ccc(CNc3cnc4[nH]ccc4c3)cc2)no1` [compound 7, N-(4-((5-(2-aminopyridin-3-yl)isoxazol-3-yl)methyl)benzyl)-1H-pyrrolo[2,3-b]pyridin-5-amine], the minimal effective concentration is over 1 µg/mL in assay [1] and 0.1 to 1 µg/mL in assay [2]. Further, the MIC with Candida albicans 90028 is 0.1 to 1 µg/mL (≈ 0.252 to 2.52 µM).

On to `COc1ccc(COc2ccc(Cc3cc(-c4cccnc4N)on3)cc2)cc1` [compound 109, 3-(3-(4-((4-methoxybenzyl)oxy)benzyl)isoxazol-5-yl)pyridin-2-amine], for which the minimal effective concentration in assay [1] and in assay [2] was over 1 µg/mL each time. The compound also had a minimal inhibitory concentration (MIC) in the assay with Candida albicans 90028 of over 1 µg/mL.

As to `Nc1ncccc1-c1cc(Cc2ccc(OCc3ccc(F)nc3)cc2)no1` [compound 116, 3-(3-(4-((6-fluoropyridin-3-yl)methoxy)benzyl)isoxazol-5-yl)pyridin-2-amine], the minimal effective concentration in assay [1] is over 1 µg/mL; in assay [2] it was 0.01 to 0.1 µg/mL. Also, in the assay with Candida albicans 90028, the MIC is over 1 µg/mL.

Take `Nc1ncccc1-c1cc(Cc2ccc(COc3ccc(Cl)c4ccccc34)cc2)no1` [compound 25, 3-(3-(4-(((4-chloronaphthalen-1-yl)oxy)methyl)benzyl)isoxazol-5-yl)pyridin-2-amine]: the minimal effective concentration in assay [1] and in assay [2] was over 1 µg/mL in each case. In the assay with Candida albicans 90028, this compound registered an MIC of over 1 µg/mL.

With `Nc1ncccc1-c1cc(Cc2ccc(N3CCCCC3)nc2)no1` [compound 230, 3-(3-((6-(piperidin-1-yl)pyridin-3-yl)methyl)isoxazol-5-yl)pyridin-2-amine], the minimal effective concentration is over 1 µg/mL in assay [1] and 0.1 to 1 µg/mL in assay [2]. Further, the MIC in the assay on Candida albicans 90028 lay within 0.1 to 1 µg/mL (≈ 0.298 to 2.98 µM).

For the compound `Nc1ncccc1-c1cc(Cc2ccc(CNc3nc4ccccc4[nH]3)cc2)no1` [Example 145, N-(4-((5-(2-aminopyridin-3-yl)isoxazol-3-yl)methyl)benzyl)-1H-benzo[d]imidazol-2-amine], the minimal effective concentration in assay [1] and in assay [2] was over 1 µg/mL each time. Further, the MIC in the assay with Candida albicans 90028 was over 1 µg/mL.

For `Nc1ncccc1-c1cc(Cc2ccnc(OCc3cccc(F)c3)c2)no1` [compound 86, 3-(3-((2-((3-fluorobenzyl)oxy)pyridin-4-yl)methyl)isoxazol-5-yl)pyridin-2-amine], the minimal effective concentration in assay [1] was over 1 µg/mL; in assay [2], 0.01 to 0.1 µg/mL. In the assay with Candida albicans 90028, this compound gave an MIC of 0.01 to 0.1 µg/mL (≈ 0.0266 to 0.266 µM).

Regarding `Nc1ncccc1-c1cc(Cc2ccc(OCc3ncccc3F)nc2)no1` [Example 162, 3-(3-((6-((3-fluoropyridin-2-yl)methoxy)pyridin-3-yl)methyl)isoxazol-5-yl)pyridin-2-amine], the minimal effective concentration is over 1 µg/mL in assay [1] and 0.1 to 1 µg/mL in assay [2]. Moreover, in the assay on Candida albicans 90028, the MIC fell in the range of 0.01 to 0.1 µg/mL (≈ 0.0265 to 0.265 µM).

Turning to `Nc1ncccc1-c1cc(Cc2ccc(CNCC3CCOCC3)cc2)no1` [compound 95, 3-(3-(4-((((tetrahydro-2H-pyran-4-yl)methyl)amino)methyl)benzyl)isoxazol-5-yl)pyridin-2-amine], the minimal effective concentration in assay [1] and in assay [2] was over 1 µg/mL throughout. The MIC against Candida albicans 90028 is over 1 µg/mL.

`Nc1ncccc1-c1cc(Cc2ccc(OCc3cccc(Cl)c3)nc2)no1` [compound 85, 3-(3-((6-((3-chlorobenzyl)oxy)pyridin-3-yl)methyl)isoxazol-5-yl)pyridin-2-amine]: the minimal effective concentration was in the range of 0.1 to 1 µg/mL in assay [1] and 0.01 to 0.1 µg/mL in assay [2]. Further, the MIC in the assay with Candida albicans 90028 was in the range of 0.01 to 0.1 µg/mL (≈ 0.0255 to 0.255 µM).

With `Nc1ncccc1-c1cc(Cc2ccc(OC3CCCc4cccnc43)nc2)no1` (stereo not drawn) [compound 129, 3-(3-((6-((5,6,7,8-tetrahydroquinolin-8-yl)oxy)pyridin-3-yl)methyl)isoxazol-5-yl)pyridin-2-amine], the minimal effective concentration in assay [1] and in assay [2] was over 1 µg/mL each time. This compound registered a minimum inhibitory concentration (MIC) in the assay on Candida albicans 90028 of over 1 µg/mL.

(Values after patent US11512079B2, “Heterocycle substituted pyridine derivative antifungal agents” (Amplyx Pharmaceuticals, Inc., priority 2017, dated 2022).)
